Measured values reported in US10738024B2, “Compounds for treatment of angiogenesis-mediated diseases” (Indiana University Research and Technology Corporation, priority 2013, dated 2020).

Tests used:
[1] = system: HUVECs; assay: ALAMARBLUE proliferation assay in HUVECs; type: cell-based, human; details: for GI50: Homo sapiens, HUVEC, 48 h, 50% growth inhibitory concentration, alamarBlue
Protocol: (§1) Particularly, in a 96-well clear bottom black plate, cells (2,500 cells per well) were seeded in a total volume of 100 μL EGM-2. After 24 hours of incubation of the plate at 37° C. and 5% CO2, a DMSO solution of synthetic cremastranone (1) or SH-11052 (2) was added in the concentration range of 0.5 nM to 500 μM (final DMSO concentration=1%). The plate was then further incubated for 48 hours before adding 11.1 μL of ALAMARBLUE® reagent to each well. Four hours after the addition of ALAMARBLUE®, fluorescence readings with excitation and emission wavelengths of 560 nm and 590 nm, respectively, were taken and the data were analyzed in GraphPad Prism software (v. 6.0). Dose response curves were generated and the GI50 values were calculated using the following equation: Y=100/(1+10^(X−Log GI50)).
(§2) For proliferation assays, cells (2500 per well) were seeded in a 96-well clear bottom black polystyrene plate in a total volume of 100 μL. HUVECs and HRECs were grown in EGM-2 and CSC+ media respectively, while 92-1 and Y79 cells were maintained in RPMI+10% FBS, penicillin/streptomycin and RB medium (IMDM+10% FBS+penicillin/streptomycin+10 μg/mL insulin+55 μM β-mercaptoethanol) respectively. After 24 hours of incubation of the plate at 37° C., the compounds were dissolved in DMSO and added in the concentration range of 500 μM to 0.5 nM. The plate was then incubated at 37° C. and 5% CO2 conditions for 48 hours before adding 11.1 μL of alamar blue reagent for each well. Four hours after the addition of ALAMARBLUE® reagent, fluorescence readings with excitation and emission wavelengths of 560 nm and 590 nm respectively were taken and the data was analyzed in GraphPad Prism software. The dose response curves were generated and the GI50 values were calculated using the equation: Y=100/(1+10^(X−Log GI50)) (Table 1).

[2] = system: HRECs; assay: ALAMARBLUE proliferation assay in HRECs; type: cell-based, human; details: for GI50: Homo sapiens, HREC, 50% growth inhibitory concentration, 48 hours, alamarBlue, read-out: GI50 HREC
Protocol: as §1, §2

[3] = system: Y-79 retinoblastoma cells; assay: ALAMARBLUE proliferation assay in Y-79 retinoblastoma cells; type: cell-based; details: 50% growth inhibitory concentration, 48 hours
Protocol: as §2

[4] = system: 92-1 uveal melanoma cells; assay: ALAMARBLUE proliferation assay in 92-1 uveal melanoma cells; type: cell-based; details: 50% growth inhibitory concentration, 48 hours, alamarBlue
Protocol: as §2

| Compound | GI50 [3] | GI50 [4] | GI50 [1] | in vitro anti-proliferative activity in HUVECs ([1]; result in words, FIGS. 6A, 6C) | GI50 [2] | in vitro anti-proliferative activity in HRECs ([2]; result in words, FIGS. 6B, 6D, 14) |
| --- | --- | --- | --- | --- | --- | --- |
| COc1ccc(CC2COc3cc(O)c(OC)c(O)c3C2=O)cc1O (racemic) [Compound 1, 5,7-dihydroxy-3-(3-hydroxy-4-methoxybenzyl)-6-methoxychroman-4-one] | 47 µM | 9.8 µM | 0.377 µM | demonstrated in vitro anti-proliferative activity | 0.217 µM | demonstrated in vitro anti-proliferative activity |
| COc1ccc(/C=C/C(=O)c2c(O)cc(OC)c(OC)c2OC)cc1OCc1ccccc1 [Compound 3a, (E)-3-(3′-benzyloxy-4′-methoxyphenyl)-1-(6-hydroxy-2,3,4-trimethoxyphenyl) prop-2-en-1-one] | > 100 µM | > 100 µM | 94 µM |  | > 100 µM |  |
| COc1cc(O)c(C(=O)/C=C/c2ccccc2)c(OC)c1OC [Compound 3b] | > 100 µM | > 100 µM | > 100 µM |  | > 100 µM |  |
| COc1ccc(CCC(=O)c2c(O)cc(OC)c(OC)c2OC)cc1O [Compound 4a, 1-(6-hydroxy-2,3,4-trimethoxyphenyl)-3-(3′-hydroxy-4′-methoxyphenyl) propan-1-one] | 68 µM | > 100 µM | 102 µM |  | 68 µM |  |
| COc1ccc(CCC(=O)c2c(O)cc(OC)c(OC)c2OC)cc1OC [Compound 4c] | > 100 µM | > 100 µM | 74 µM |  | 123 µM |  |
| COc1ccc(CC2(CO)COc3cc(OC)c(OC)c(OC)c3C2=O)cc1O (stereo not drawn) [Compound 5, 3-(3′-hydroxy-4′-methoxybenzyl)-3-(hydroxymethyl)-5,6,7-trimethoxychroman-4-one] | > 100 µM | > 100 µM | > 100 µM |  | > 100 µM |  |
| COc1ccc(CC2COc3cc(OC)c(OC)c(OC)c3C2=O)cc1O (stereo not drawn) [Compound 6a, 3-(3′-hydroxy-4′-methoxybenzyl)-5,6,7-trimethoxychroman-4-one] | > 100 µM | > 100 µM | > 100 µM |  | > 100 µM |  |
| COc1cc2c(c(OC)c1OC)C(=O)C(Cc1ccccc1)CO2 (stereo not drawn) [Compound 6b, 3-benzyl-5,6,7-trimethoxychroman-4-one] | > 100 µM | > 100 µM | > 100 µM |  | > 100 µM |  |
| COC(=O)c1cc(CC2COc3cc(OC)c(OC)c(OC)c3C2=O)ccc1OC (stereo not drawn) [Compound 6d] | 40 µM | > 250 µM | 27 µM |  | 13 µM |  |
| COc1cc2c(c(OC)c1OC)C(=O)C(Cc1ccc(O)c(O)c1)CO2 (stereo not drawn) [Compound 6e] | 98 µM | > 250 µM | 77 µM |  | > 250 µM |  |
| COc1ccc(CC2COc3cc(OC)c(OC)c(OC)c3C2=O)cc1C(=O)O (stereo not drawn) [Compound 6f] | > 250 µM | > 250 µM | 92 µM |  | 131 µM |  |
| C=C(Cc1ccc(OC)c(O)c1)C(=O)c1c(O)cc(OC)c(OC)c1OC [Compound 7, 1-(6-hydroxy-2,3,4-trimethoxyphenyl)-2-(3′-hydroxy-4′-methoxybenzyl)prop-2-en-1-one] | 8 µM | 17 µM | 1.4 µM |  | 10 µM |  |
| COc1ccc(CC2COc3cc(OC)c(OC)c(O)c3C2=O)cc1O (stereo not drawn) [Compound 8a] | > 100 µM | > 100 µM | 44 µM |  | > 100 µM |  |
| COc1cc2c(c(O)c1OC)C(=O)C(Cc1ccccc1)CO2 (stereo not drawn) [Compound 8b, 3-benzyl-5-hydroxy-6,7-dimethoxychroman-4-one] | > 100 µM | > 100 µM | 40 µM |  | > 100 µM |  |
| COc1ccc(CC2COc3cc(OC)c(O)c(O)c3C2=O)cc1OC(=O)c1ccccc1 (stereo not drawn) [Compound 8c] | > 50 µM | 51 µM | > 100 µM |  | > 100 µM |  |
| COc1ccc(CC2COc3cc(O)c(O)c(O)c3C2=O)cc1O (stereo not drawn) [Compound 8d, 5,6,7-trihydroxy-3-(3-hydroxy-4-methoxybenzyl)chroman-4-one] | > 500 µM | > 500 µM | 124 µM |  | 135 µM |  |
| COc1ccc(Cc2coc3cc(OC)c(OC)c(OC)c3c2=O)cc1O [Compound 9a, 3-(3′-hydroxy-4′-methoxybenzyl)-5,6,7-trimethoxy-4H-chromen-4-one] | > 100 µM | > 100 µM | > 100 µM |  | > 100 µM |  |
| COc1c(O)cc2occ(Cc3ccccc3)c(=O)c2c1O [Compound 9b, 3-benzyl-5,7-dihydroxy-6-methoxy-4H-chromen-4-one] | > 100 µM | > 100 µM | > 100 µM |  | > 100 µM |  |

The next lines start with results.

| GI50 [3] | GI50 [4] | Compound | GI50 [1] | in vitro anti-proliferative activity in HUVECs ([1]; result in words, FIGS. 6A, 6C) | GI50 [2] | in vitro anti-proliferative activity in HRECs ([2]; result in words, FIGS. 6B, 6D, 14) |
| --- | --- | --- | --- | --- | --- | --- |
| > 500 µM | > 500 µM | COc1cc2c(c(OC)c1OC)C(=O)CCO2 [Compound 10a, 5,6,7-trimethoxychromanone] | > 100 µM |  | > 100 µM |  |
| 44 µM | 0.22 µM | COc1ccc(/C=C2\COc3cc(OC)c(OC)c(OC)c3C2=O)cc1O [Compound 11a, (E)-3-(3′-hydroxy-4′-methoxybenzylidene)-5,6,7-trimethoxychroman-4-one] | 8 µM |  | 46 µM |  |
| 15 µM |  | COc1ccc(/C=C2\COc3cc(OC)c(OC)c(OC)c3C2=O)cc1OCc1ccccc1 [Compound 11b, (E)-3-(3′-benzyloxy-4′-methoxybenzylidene)-5,6,7-trimethoxychroman-4-one] | 4 µM |  | 6 µM |  |
| 3 µM | 3.2 µM | C=CCOc1cc(/C=C2\COc3cc(OC)c(OC)c(OC)c3C2=O)ccc1OC [Compound 11c, (E)-3-(3′-allyloxy-4′-methoxybenzylidene)-5,6,7-trimethoxychroman-4-one] | 11 µM |  | 4 µM |  |
| 39 µM | 23 µM | COc1cc(/C=C2\COc3cc(OC)c(OC)c(OC)c3C2=O)ccc1OCc1ccccc1 [Compound 11d] | 114 µM |  | 53 µM |  |
| 23 µM | 55 µM | COc1cc(/C=C2\COc3cc(OC)c(OC)c(OC)c3C2=O)ccc1O [Compound 11e] | 6 µM |  | 4 µM |  |
| 25 µM | 25 µM | COc1cccc(/C=C2\COc3cc(OC)c(OC)c(OC)c3C2=O)n1 [Compound 11f] | 16 µM |  | 17 µM |  |
| 32 µM | 310 µM | C#CCOc1cc(/C=C2\COc3cc(OC)c(OC)c(OC)c3C2=O)ccc1OC [Compound 11g] | 21 µM |  | 39 µM |  |
| 44 µM | 13 µM | COc1ccc(/C=C2\COc3cc(OC)c(OC)c(OC)c3C2=O)cc1[N+](=O)[O-] [Compound 11h] | 11 µM |  | 4 µM |  |
| 465 µM | 152 µM | COc1cc2c(c(OC)c1OC)C(=O)/C(=C/c1ccc(OCc3ccccc3)cc1)CO2 [Compound 11i] | 284 µM |  | > 500 µM |  |
| 9 µM | 23 µM | COc1cc2c(c(OC)c1OC)C(=O)/C(=C/c1ccc([N+](=O)[O-])cc1)CO2 [Compound 11j] | 6 µM |  | 14 µM |  |
| 3.2 µM | 6 µM | COc1ccc(/C=C2\COc3cc(OC)c(OC)c(OC)c3C2=O)cc1OCCN1CCCC1 [Compound 11k, (E)-5,6,7-trimethoxy-3-(4-methoxy-3-(2-(pyrrolidin-1-yl)ethoxy)benzylidene)chroman-4-one] | 3.5 µM |  | 0.185 µM |  |
| 21 µM | > 500 µM | COc1ccc(/C=C2\COc3cc(OC)c(OC)c(OC)c3C2=O)cc1OCC(=O)OC(C)(C)C [Compound 11l] | 27 µM |  | > 500 µM |  |
| > 500 µM | > 500 µM | COc1ccc(/C=C2\COc3cc(OC)c(OC)c(OC)c3C2=O)cc1OCC(=O)O [Compound 11m] | > 500 µM |  | > 500 µM |  |
| 13 µM | 13.7 µM | COc1cc2c(c(OC)c1OC)C(=O)/C(=C/c1ccc(O)c(O)c1)CO2 [Compound 11n] | 4.1 µM |  | 6.4 µM |  |
| 2.3 µM | 8.2 µM | COC(=O)c1cc(/C=C2\COc3cc(OC)c(OC)c(OC)c3C2=O)ccc1O [Compound 11o] | 2 µM |  | 4.7 µM |  |
| 22 µM | 30 µM | COc1cc2c(c(OC)c1OC)C(=O)/C(=C/c1ccc(O)c(F)c1)CO2 [Compound 11p] | 9 µM |  | 19 µM |  |
